{"source": "PubChem BioAssay AID1259407", "about": "(Chemical Carcinogenesis Research Information System (CCRIS), 2018)", "test_system": "CCRIS mutagenicity, Ames/micronucleus/aberration tests", "test": "CCRIS mutagenicity studies", "note": "Calls of active or inactive are those of the source. The rule behind the calls is not given here."}
{"smiles": "Oc1cccc2cccnc12", "values": [{"measurement": "mutagenic call", "setting": "End Point: IN VITRO CHROMOSOMAL ABERRATIONS, Test System: CHL CELLS, Metabolic Activation: RAT, LIVER, S-9, SODIUM PHENOBARBITAL AND 5,6-BENZOFLAVONE", "value": "active; positive (structural changes)"}, {"measurement": "mutagenic call", "setting": "End Point: IN VITRO CHROMOSOMAL ABERRATIONS, Test System: CHO-LB CELLS, Metabolic Activation: NONE", "value": "inactive; negative"}, {"measurement": "mutagenic call", "setting": "End Point: IN VITRO CHROMOSOMAL ABERRATIONS, Test System: CHO-LB CELLS, Metabolic Activation: RAT, LIVER, S-9, AROCLOR 1254", "value": "active; positive"}, {"measurement": "mutagenic call", "setting": "End Point: IN VITRO CHROMOSOMAL ABERRATIONS, Test System: CHO-WBL CELLS, Metabolic Activation: RAT, LIVER, S-9, PHENOBARBITAL AND BETA-NAPHTHOFLAVONE", "value": "active; positive"}, {"measurement": "mutagenic call", "setting": "Test System: AMES SALMONELLA TYPHIMURIUM, Strain/Indicator: TA97, Metabolic Activation: HAMSTER, LIVER, S-9, AROCLOR 1254 (10%), Method: PREINCUBATION", "value": "active; positive"}, {"measurement": "mutagenic call", "setting": "Test System: AMES SALMONELLA TYPHIMURIUM, Strain/Indicator: TA97, Metabolic Activation: NONE, Method: PREINCUBATION", "value": "inactive; negative"}, {"measurement": "mutagenic call", "setting": "Test System: AMES SALMONELLA TYPHIMURIUM, Strain/Indicator: TA97, Metabolic Activation: RAT, LIVER, S-9, AROCLOR 1254 (10%), Method: PREINCUBATION", "value": "active; positive"}, {"measurement": "mutagenic call", "setting": "Test System: AMES SALMONELLA TYPHIMURIUM, Strain/Indicator: TA98, Metabolic Activation: HAMSTER, LIVER, S-9, AROCLOR 1254 (10%), Method: PREINCUBATION", "value": "inactive; negative"}, {"measurement": "mutagenic call", "setting": "Test System: AMES SALMONELLA TYPHIMURIUM, Strain/Indicator: TA98, Metabolic Activation: HAMSTER, LIVER, S-9, AROCLOR 1254 (30%), Method: PREINCUBATION", "value": "inactive; negative"}, {"measurement": "mutagenic call", "setting": "Test System: AMES SALMONELLA TYPHIMURIUM, Strain/Indicator: TA98, Metabolic Activation: NONE, Method: FLUCTUATION (MICROTITER)", "value": "inactive; negative"}, {"measurement": "mutagenic call", "setting": "Test System: AMES SALMONELLA TYPHIMURIUM, Strain/Indicator: TA98, Metabolic Activation: NONE, Method: PREINCUBATION", "value": "inactive; negative"}, {"measurement": "mutagenic call", "setting": "Test System: AMES SALMONELLA TYPHIMURIUM, Strain/Indicator: TA98, Metabolic Activation: RAT LIVER S-9, AROCLOR 1254, Method: FLUCTUATION (MICROTITER)", "value": "active; positive"}, {"measurement": "mutagenic call", "setting": "Test System: AMES SALMONELLA TYPHIMURIUM, Strain/Indicator: TA98, Metabolic Activation: RAT, LIVER, S-9, AROCLOR 1254 (10%), Method: PREINCUBATION", "value": "inactive; negative"}, {"measurement": "mutagenic call", "setting": "Test System: AMES SALMONELLA TYPHIMURIUM, Strain/Indicator: TA98, Metabolic Activation: RAT, LIVER, S-9, AROCLOR 1254 (30%), Method: PREINCUBATION", "value": "active; positive"}, {"measurement": "mutagenic call", "setting": "Test System: AMES SALMONELLA TYPHIMURIUM, Strain/Indicator: TA98, Metabolic Activation: RAT, LIVER, S-9, AROCLOR 1254, Method: STANDARD PLATE", "value": "active; positive"}, {"measurement": "mutagenic call", "setting": "Test System: AMES SALMONELLA TYPHIMURIUM, Strain/Indicator: TA98, Metabolic Activation: RAT, LIVER, S-9, KC500 OR PHENOBARBITAL, Method: LIQUID SUSPENSION", "value": "active; positive"}, {"measurement": "mutagenic call", "setting": "Test System: AMES SALMONELLA TYPHIMURIUM, Strain/Indicator: TA98, Metabolic Activation: RAT, LIVER, S-9, Method: PREINCUBATION", "value": "active; positive"}, {"measurement": "mutagenic call", "setting": "Test System: AMES SALMONELLA TYPHIMURIUM, Strain/Indicator: TA100, Metabolic Activation: HAMSTER, LIVER, S-9, AROCLOR 1254 (10%), Method: PREINCUBATION", "value": "active; positive"}, {"measurement": "mutagenic call", "setting": "Test System: AMES SALMONELLA TYPHIMURIUM, Strain/Indicator: TA100, Metabolic Activation: HAMSTER, LIVER, S-9, AROCLOR 1254 (30%), Method: PREINCUBATION", "value": "inactive; negative"}, {"measurement": "mutagenic call", "setting": "Test System: AMES SALMONELLA TYPHIMURIUM, Strain/Indicator: TA100, Metabolic Activation: NONE, Method: PREINCUBATION", "value": "inactive; negative"}, {"measurement": "mutagenic call", "setting": "Test System: AMES SALMONELLA TYPHIMURIUM, Strain/Indicator: TA100, Metabolic Activation: NONE, Method: STANDARD PLATE", "value": "inactive; negative"}, {"measurement": "mutagenic call", "setting": "Test System: AMES SALMONELLA TYPHIMURIUM, Strain/Indicator: TA100, Metabolic Activation: RAT, LIVER, S-9, AROCLOR 1254 (5%, 10% OR 20%), Method: STANDARD PLATE", "value": "active; positive"}, {"measurement": "mutagenic call", "setting": "Test System: AMES SALMONELLA TYPHIMURIUM, Strain/Indicator: TA100, Metabolic Activation: RAT, LIVER, S-9, AROCLOR 1254 (10% OR 20%), Method: STANDARD PLATE", "value": "active; positive"}, {"measurement": "mutagenic call", "setting": "Test System: AMES SALMONELLA TYPHIMURIUM, Strain/Indicator: TA100, Metabolic Activation: RAT, LIVER, S-9, AROCLOR 1254 (10%), Method: PREINCUBATION", "value": "active; positive"}, {"measurement": "mutagenic call", "setting": "Test System: AMES SALMONELLA TYPHIMURIUM, Strain/Indicator: TA100, Metabolic Activation: RAT, LIVER, S-9, AROCLOR 1254 (30%), Method: PREINCUBATION", "value": "active; positive"}, {"measurement": "mutagenic call", "setting": "Test System: AMES SALMONELLA TYPHIMURIUM, Strain/Indicator: TA100, Metabolic Activation: RAT, LIVER, S-9, AROCLOR 1254, Method: STANDARD PLATE", "value": "active; positive"}, {"measurement": "mutagenic call", "setting": "Test System: AMES SALMONELLA TYPHIMURIUM, Strain/Indicator: TA100, Metabolic Activation: RAT, LIVER, S-9, KC500 OR PHENOBARBITAL, Method: LIQUID SUSPENSION", "value": "active; positive"}, {"measurement": "mutagenic call", "setting": "Test System: AMES SALMONELLA TYPHIMURIUM, Strain/Indicator: TA100, Metabolic Activation: RAT, LIVER, S-9, Method: PREINCUBATION", "value": "active; positive"}, {"measurement": "mutagenic call", "setting": "Test System: AMES SALMONELLA TYPHIMURIUM, Strain/Indicator: TA100, Metabolic Activation: S-9, Method: PREINCUBATION", "value": "active; positive"}, {"measurement": "mutagenic call", "setting": "Test System: AMES SALMONELLA TYPHIMURIUM, Strain/Indicator: TA1535, Metabolic Activation: HAMSTER, LIVER, S-9, AROCLOR 1254 (10%), Method: PREINCUBATION", "value": "inactive; negative"}, {"measurement": "mutagenic call", "setting": "Test System: AMES SALMONELLA TYPHIMURIUM, Strain/Indicator: TA1535, Metabolic Activation: NONE, Method: PREINCUBATION", "value": "inactive; negative"}, {"measurement": "mutagenic call", "setting": "Test System: AMES SALMONELLA TYPHIMURIUM, Strain/Indicator: TA1535, Metabolic Activation: RAT, LIVER, S-9, AROCLOR 1254 (10%), Method: PREINCUBATION", "value": "inactive; negative"}, {"measurement": "mutagenic call", "setting": "Test System: AMES SALMONELLA TYPHIMURIUM, Strain/Indicator: TA1535, Metabolic Activation: RAT, LIVER, S-9, AROCLOR 1254, Method: STANDARD PLATE", "value": "active; positive"}, {"measurement": "mutagenic call", "setting": "Test System: AMES SALMONELLA TYPHIMURIUM, Strain/Indicator: TA1537, Metabolic Activation: NONE, Method: FLUCTUATION (MICROTITER)", "value": "inactive; negative"}, {"measurement": "mutagenic call", "setting": "Test System: AMES SALMONELLA TYPHIMURIUM, Strain/Indicator: TA1537, Metabolic Activation: RAT LIVER S-9, AROCLOR 1254, Method: FLUCTUATION (MICROTITER)", "value": "active; positive"}, {"measurement": "mutagenic call", "setting": "Test System: AMES SALMONELLA TYPHIMURIUM, Strain/Indicator: TA1537, Metabolic Activation: RAT, LIVER, S-9, AROCLOR 1254, Method: STANDARD PLATE", "value": "active; positive"}, {"measurement": "mutagenic call", "setting": "Test System: AMES SALMONELLA TYPHIMURIUM, Strain/Indicator: TA7001, Metabolic Activation: NONE, Method: FLUCTUATION (MICROTITER)", "value": "inactive; negative"}, {"measurement": "mutagenic call", "setting": "Test System: AMES SALMONELLA TYPHIMURIUM, Strain/Indicator: TA7001, Metabolic Activation: RAT LIVER S-9, AROCLOR 1254, Method: FLUCTUATION (MICROTITER)", "value": "inactive; negative"}, {"measurement": "mutagenic call", "setting": "Test System: AMES SALMONELLA TYPHIMURIUM, Strain/Indicator: TA7002, Metabolic Activation: NONE, Method: FLUCTUATION (MICROTITER)", "value": "inactive; negative"}, {"measurement": "mutagenic call", "setting": "Test System: AMES SALMONELLA TYPHIMURIUM, Strain/Indicator: TA7002, Metabolic Activation: RAT LIVER S-9, AROCLOR 1254, Method: FLUCTUATION (MICROTITER)", "value": "active; positive"}, {"measurement": "mutagenic call", "setting": "Test System: AMES SALMONELLA TYPHIMURIUM, Strain/Indicator: TA7003, Metabolic Activation: NONE, Method: FLUCTUATION (MICROTITER)", "value": "inactive; negative"}, {"measurement": "mutagenic call", "setting": "Test System: AMES SALMONELLA TYPHIMURIUM, Strain/Indicator: TA7003, Metabolic Activation: RAT LIVER S-9, AROCLOR 1254, Method: FLUCTUATION (MICROTITER)", "value": "inactive; negative"}, {"measurement": "mutagenic call", "setting": "Test System: AMES SALMONELLA TYPHIMURIUM, Strain/Indicator: TA7004, Metabolic Activation: NONE, Method: FLUCTUATION (MICROTITER)", "value": "inactive; negative"}, {"measurement": "mutagenic call", "setting": "Test System: AMES SALMONELLA TYPHIMURIUM, Strain/Indicator: TA7004, Metabolic Activation: RAT LIVER S-9, AROCLOR 1254, Method: FLUCTUATION (MICROTITER)", "value": "inactive; negative"}, {"measurement": "mutagenic call", "setting": "Test System: AMES SALMONELLA TYPHIMURIUM, Strain/Indicator: TA7005, Metabolic Activation: NONE, Method: FLUCTUATION (MICROTITER)", "value": "inactive; negative"}, {"measurement": "mutagenic call", "setting": "Test System: AMES SALMONELLA TYPHIMURIUM, Strain/Indicator: TA7005, Metabolic Activation: RAT LIVER S-9, AROCLOR 1254, Method: FLUCTUATION (MICROTITER)", "value": "active; positive"}, {"measurement": "mutagenic call", "setting": "Test System: AMES SALMONELLA TYPHIMURIUM, Strain/Indicator: TA7006, Metabolic Activation: NONE, Method: FLUCTUATION (MICROTITER)", "value": "inactive; negative"}, {"measurement": "mutagenic call", "setting": "Test System: AMES SALMONELLA TYPHIMURIUM, Strain/Indicator: TA7006, Metabolic Activation: RAT LIVER S-9, AROCLOR 1254, Method: FLUCTUATION (MICROTITER)", "value": "inactive; negative"}, {"measurement": "mutagenic call", "setting": "Test System: UDS RODENT HEPATOCYTES, Strain/Indicator: THY INCORP (NON-S-PHASE), Metabolic Activation: IN VIVO, Method: AUTORADIOGRAPHY", "value": "inactive; negative"}]}
